IC50 data for nine compounds are collected here from patent US8163793B2, “Proline derivatives” (Hoffman-La Roche Inc., priority 2009, dated 2012).

Molecules are shown by their SMILES. Some results are limits rather than exact numbers.

For one assay, the target named is Cathepsin S (UniProt P25774). The assay is described as follows: Cathepsin enzyme inhibition assay (fluorogenic peptide substrate Z-Val-Val-Arg-AMC), Cathepsin S. It counts as biochemical, human and mouse. Conditions: enzyme 1 nM, substrate 20 μM, pH 6.5; read-out: CatS IC50. In outline:
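Human or mouse cathepsin S (1 nM) was run in 100 mM potassium phosphate pH 6.5 with 5 mM EDTA, 0.001% Triton X-100 and 5 mM DTT. The rise in AMC fluorescence from cleavage was measured, and IC50 values were calculated by standard methods and expressed in μM.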

Another assay addresses Cat L (UniProt P07711). As to the kind of experiment: Cathepsin enzyme inhibition assay (fluorogenic peptide substrate Z-Val-Val-Arg-AMC), Cathepsin L. It counts as biochemical, human and mouse. Particulars: enzyme 1 nM, substrate 20 μM, pH 6.5; read-out: CatL IC50. In outline:
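Cathepsin L at 1 nM was mixed with compound, then started with 20 μM Z-Val-Val-Arg-AMC in pH 6.5 potassium phosphate with EDTA, Triton X-100 and 5 mM DTT. AMC fluorescence (ex 360/em 465 nm) was followed over 20 min. IC50 is given in μM.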

`CC(C)(C)OC(=O)N1C[C@H](S(=O)(=O)c2ccc(OCC(F)(F)F)cc2C(F)(F)F)C[C@H]1C(=O)NC1(C#N)CC1` [Example 208, (2S,4R)-2-(1-Cyano-cyclopropylcarbamoyl)-4-[4-(2,2,2-trifluoro-ethoxy)-2-trifluoromethyl-benzenesulfonyl]-pyrrolidine-1-carboxylic acid tert-butyl ester]: the IC50 (as a rule, the point on the concentration scale where inhibition reaches its midpoint) at Cathepsin S was 0.8 nM; at Cat L, no less than 25000 nM.

Regarding `N#CC1(NC(=O)[C@@H]2C[C@@H](S(=O)(=O)c3ccc(F)cc3C(F)(F)F)CN2C(=O)C2(C(F)(F)F)CC2)CC1` [Example 209, (2S,4R)-4-(4-Fluoro-2-trifluoromethyl-benzenesulfonyl)-1-(1-trifluoromethyl-cyclopropanecarbonyl)-pyrrolidine-2-carboxylic acid (1-cyano-cyclopropyl)-amide], the results for the IC50 at Cathepsin S and on Cat L were 0.2 nM and no less than 25000 nM, respectively.

Regarding `CC(C)(C)C(=O)N1C[C@H](S(=O)(=O)c2ccc(F)cc2C(F)(F)F)C[C@H]1C(=O)NC1(C#N)CC1` [Example 210, (2S,4R)-1-(2,2-Dimethyl-propionyl)-4-(4-fluoro-2-trifluoromethyl-benzenesulfonyl)-pyrrolidine-2-carboxylic acid (1-cyano-cyclopropyl)-amide], the IC50 on Cathepsin S is 0.4 nM; at Cat L, no less than 25000 nM.

Regarding `CC1(C(=O)N2C[C@H](S(=O)(=O)c3ccc(OCC(F)(F)F)cc3C(F)(F)F)C[C@H]2C(=O)NC2(C#N)CC2)CC1` [Example 211, (2S,4R)-1-(1-Methyl-cyclopropanecarbonyl)-4-[4-(2,2,2-trifluoro-ethoxy)-2-trifluoromethyl-benzenesulfonyl]-pyrrolidine-2-carboxylic acid (1-cyano-cyclopropyl)-amide], the IC50 at Cathepsin S amounted to 0.3 nM; on Cat L, 63900 nM.

`CC(C)(C)C(=O)N1C[C@H](S(=O)(=O)c2ccc(OCC(F)(F)F)cc2C(F)(F)F)C[C@H]1C(=O)NC1(C#N)CC1` [Example 212, (2S,4R)-1-(2,2-Dimethyl-propionyl)-4-[4-(2,2,2-trifluoro-ethoxy)-2-trifluoromethyl-benzenesulfonyl]-pyrrolidine-2-carboxylic acid (1-cyano-cyclopropyl)-amide]: the IC50 on Cathepsin S is 0.3 nM; at Cat L, no less than 25000 nM.

On to `N#CC1(NC(=O)[C@@H]2C[C@@H](S(=O)(=O)c3ccccc3Cl)CN2C(=O)C2(C(F)(F)F)CC2)CC1` [Example 213, (2S,4R)-4-(2-Chloro-benzenesulfonyl)-1-(1-trifluoromethyl-cyclopropanecarbonyl)-pyrrolidine-2-carboxylic acid (1-cyano-cyclopropyl)-amide], for which the values for the IC50 at Cathepsin S and on Cat L were 0.4 nM and 7970 nM, respectively.

Turning to `CC1(C(=O)N2C[C@H](S(=O)(=O)c3ccccc3Cl)C[C@H]2C(=O)NC2(C#N)CC2)CC1` [Example 214, (2S,4R)-4-(2-Chloro-benzenesulfonyl)-1-(1-methyl-cyclopropanecarbonyl)-pyrrolidine-2-carboxylic acid (1-cyano-cyclopropyl)-amide], the IC50 came to 0.5 nM on Cathepsin S and 11300 nM on Cat L.

Consider `N#CC1(NC(=O)[C@@H]2C[C@@H](S(=O)(=O)c3ccccc3Cl)CN2C(=O)C2(c3ccccc3)CC2)CC1` [Example 216, (2S,4R)-4-(2-Chloro-benzenesulfonyl)-1-(1-phenyl-cyclopropanecarbonyl)-pyrrolidine-2-carboxylic acid (1-cyano-cyclopropyl)-amide], for which the IC50 on Cathepsin S worked out at 0.2 nM; at Cat L, 285 nM.

For `CC(C)(C)C(=O)N1C[C@H](S(=O)(=O)c2ccccc2Cl)C[C@H]1C(=O)NC1(C#N)CC1` [Example 217, (2S,4R)-4-(2-Chloro-benzenesulfonyl)-1-(2,2-dimethyl-propionyl)-pyrrolidine-2-carboxylic Acid (1-cyano-cyclopropyl)-amide], the IC50 on Cathepsin S is 0.7 nM; on Cat L it was 14000 nM.
